Assay results taken from patent publication US12448369B2 (Edgewise Therapeutics, Inc., priority 2023, dated 2025).
Marks after values point to notes of the source that are not given here.

Columns and labels:
[1] = target: T1, Porcine ventricle myofibrils (ventricular myosin ATPase) (Sus scrofa, UniProt P79293); assay: Myofibril ATPase assay, porcine ventricle myofibrils; type: biochemical, porcine (Yucatan minipigs)
T1 construct: Myofibrils from porcine cardiac muscle was isolated from the left ventricle of Yucatan minipigs; tissue Exemplar Genetics; host or cells: left ventricle of Yucatan minipigs, myofibrils prepared in house
Description: (§1) Example 1. Myofibril ATPase Assay
(§2) Myofibril ATPase assays are known in the art to be useful in evaluating small molecules for the treatment of HCM and other cardiac indications. Myosin ATPase activity is assessed by using a coupled reaction system, in which ADP generated by the myosin ATPase function is coupled to the disappearance of NADH through the pyruvate kinase/lactate dehydrogenase (PK-LDH) system. ATPase activity produces ADP, which is used as a substrate for PK to produce pyruvate and regenerate ATP. The pyruvate is then used as a substrate by LDH to oxidize NADH to NAD+. The rate of the reaction is monitored through the time-dependent disappearance of NADH using absorbance at 340 nm, which, when the couple system is in stoichiometric excess, is directly correlated to the ATPase activity of the myosin. Inhibition of ATPase activity by the assayed compounds is indicated by a reduced rate of NADH loss, relative to vehicle-treated controls, over the experimental time window. Activation of ATPase activity by the assayed compounds is indicated by an increased rate of NADH loss, relative to vehicle-treated controls, over the experimental time window. Rabbit Psoas, Porcine atria, and Porcine ventricle are the primary sources of myofibril material.
(§3) Materials: The following stock solutions and reagents were used in the Myofibril ATPase Assay:
(§4) Stock Solutions of pCa buffer. Combine PIPES, CaCl2, and EGTA solutions with water. Adjust pH to 7.0 and bring final volume to 100 mL.
(§5) Buffer A & Buffer B. Prepare buffers A and B according to the table below.
(§6) Myofibril ATPase Assay Procedure: BSA, ATP, NADH, PEP, and DTT solutions were thawed at room temperature, then transferred to ice. Pellet-frozen myofibrils were transferred with approximately twice the required volume into a sufficiently large tube and capped. Myofibrils were thawed by rolling in a water bath for approximately 15 min at room temperature and cooled on ice. Buffers A and B were prepared by adjusting volumes as necessary for required number of wells and stored on ice. 0.5 μL of the compounds to be assayed were added into wells. 25 μL of Buffer A was dispensed into the wells, followed by 25 μL of Buffer B. The wells were measured for absorbance at 340 nm, using a kinetic protocol in which the wells are read every 1.5-2 min for 75 min. Assay data analysis was performed using a python script that filtered the raw data to retain those points falling between a starting and ending time and between a maximum and minimum absorbance, then used the filtered time-domain 340 nm absorbance data in each well to calculate a slope via linear regression analysis in units of mAU/min. Compound slopes were normalized between 100% and 0% activity, where 100% represented the slope of wells containing only compound vehicle, and fit to a 4-parameter logistic model. In addition to the fit parameters, the EC25% values were calculated, relative to the 100% normalized value. Additionally, the Y125 values were calculated for compounds that increased myosin ATP-ase activity. Fit parameters, calculated effective concentrations, filtered raw data, and calculated slopes were exported, in addition to compound-specific graphs of normalized ATPase activity versus concentration in μM. Each value reported in Table 5, Table 6, and Table 7 is either a Y75 value or a Y125 value. Values without a double cross sign, ‡, are Y75 values, which reflect the concentration required to reduce myosin ATP-ase activity by 25% (e.g., Y-axis activity value is 75% of initial value), relative to myosin ATP-ase activity in the absence of exogenous compound.
Cardiac Myofibril Isolation:
Myofibrils from porcine cardiac muscle was isolated from the left ventricle of Yucatan minipigs. Myofibrils were prepared using a method based upon those described in Herrmann et al. (1993) and summarized here. […]

[2] = test system: Porcine atria myofibrils (atrial myosin ATPase); assay: Myofibril ATPase assay, porcine atria myofibrils; type: biochemical
Description: as §1, §2, §3, §4, §5, §6
(§7) Myofibrils from various animals and tissue types were acquired from a variety of sources: rabbit psoas muscle was purchased from Pel-Freez Biologicals (Rogers, AR) and porcine cardiac muscle was purchased from Exemplar Genetics. All myofibrils were prepared using a method based upon those described in Herrmann et al. (1993) and summarized here. […]

[3] = test system: Rabbit Psoas myofibrils (skeletal myosin ATPase); assay: Myofibril ATPase assay, rabbit psoas (skeletal) myofibrils; type: biochemical
Description: as §1, §2, §3, §4, §5, §6
Skeletal Myofibril Isolation:
as §7

[4] = Y75 value (no ‡ mark), porcine ventricle myofibrils
[5] = ‡ Y125 value, not a Y75 value (125% activity relative to no compound), porcine atria myofibrils
[6] = Y75 value (no ‡ mark), rabbit psoas myofibrils
[7] = Y75 value (no ‡ mark), porcine atria myofibrils
[8] = porcine ventricle myofibrils, Y75 value
[9] = porcine atria myofibrils, Y75 value (75% activity relative to no compound)
[10] = rabbit psoas myofibrils, Y75 value
[11] = ‡ Y125 value, not a Y75 value (125% activity relative to no compound), rabbit psoas myofibrils

T1 sequence (P79293 whole entry): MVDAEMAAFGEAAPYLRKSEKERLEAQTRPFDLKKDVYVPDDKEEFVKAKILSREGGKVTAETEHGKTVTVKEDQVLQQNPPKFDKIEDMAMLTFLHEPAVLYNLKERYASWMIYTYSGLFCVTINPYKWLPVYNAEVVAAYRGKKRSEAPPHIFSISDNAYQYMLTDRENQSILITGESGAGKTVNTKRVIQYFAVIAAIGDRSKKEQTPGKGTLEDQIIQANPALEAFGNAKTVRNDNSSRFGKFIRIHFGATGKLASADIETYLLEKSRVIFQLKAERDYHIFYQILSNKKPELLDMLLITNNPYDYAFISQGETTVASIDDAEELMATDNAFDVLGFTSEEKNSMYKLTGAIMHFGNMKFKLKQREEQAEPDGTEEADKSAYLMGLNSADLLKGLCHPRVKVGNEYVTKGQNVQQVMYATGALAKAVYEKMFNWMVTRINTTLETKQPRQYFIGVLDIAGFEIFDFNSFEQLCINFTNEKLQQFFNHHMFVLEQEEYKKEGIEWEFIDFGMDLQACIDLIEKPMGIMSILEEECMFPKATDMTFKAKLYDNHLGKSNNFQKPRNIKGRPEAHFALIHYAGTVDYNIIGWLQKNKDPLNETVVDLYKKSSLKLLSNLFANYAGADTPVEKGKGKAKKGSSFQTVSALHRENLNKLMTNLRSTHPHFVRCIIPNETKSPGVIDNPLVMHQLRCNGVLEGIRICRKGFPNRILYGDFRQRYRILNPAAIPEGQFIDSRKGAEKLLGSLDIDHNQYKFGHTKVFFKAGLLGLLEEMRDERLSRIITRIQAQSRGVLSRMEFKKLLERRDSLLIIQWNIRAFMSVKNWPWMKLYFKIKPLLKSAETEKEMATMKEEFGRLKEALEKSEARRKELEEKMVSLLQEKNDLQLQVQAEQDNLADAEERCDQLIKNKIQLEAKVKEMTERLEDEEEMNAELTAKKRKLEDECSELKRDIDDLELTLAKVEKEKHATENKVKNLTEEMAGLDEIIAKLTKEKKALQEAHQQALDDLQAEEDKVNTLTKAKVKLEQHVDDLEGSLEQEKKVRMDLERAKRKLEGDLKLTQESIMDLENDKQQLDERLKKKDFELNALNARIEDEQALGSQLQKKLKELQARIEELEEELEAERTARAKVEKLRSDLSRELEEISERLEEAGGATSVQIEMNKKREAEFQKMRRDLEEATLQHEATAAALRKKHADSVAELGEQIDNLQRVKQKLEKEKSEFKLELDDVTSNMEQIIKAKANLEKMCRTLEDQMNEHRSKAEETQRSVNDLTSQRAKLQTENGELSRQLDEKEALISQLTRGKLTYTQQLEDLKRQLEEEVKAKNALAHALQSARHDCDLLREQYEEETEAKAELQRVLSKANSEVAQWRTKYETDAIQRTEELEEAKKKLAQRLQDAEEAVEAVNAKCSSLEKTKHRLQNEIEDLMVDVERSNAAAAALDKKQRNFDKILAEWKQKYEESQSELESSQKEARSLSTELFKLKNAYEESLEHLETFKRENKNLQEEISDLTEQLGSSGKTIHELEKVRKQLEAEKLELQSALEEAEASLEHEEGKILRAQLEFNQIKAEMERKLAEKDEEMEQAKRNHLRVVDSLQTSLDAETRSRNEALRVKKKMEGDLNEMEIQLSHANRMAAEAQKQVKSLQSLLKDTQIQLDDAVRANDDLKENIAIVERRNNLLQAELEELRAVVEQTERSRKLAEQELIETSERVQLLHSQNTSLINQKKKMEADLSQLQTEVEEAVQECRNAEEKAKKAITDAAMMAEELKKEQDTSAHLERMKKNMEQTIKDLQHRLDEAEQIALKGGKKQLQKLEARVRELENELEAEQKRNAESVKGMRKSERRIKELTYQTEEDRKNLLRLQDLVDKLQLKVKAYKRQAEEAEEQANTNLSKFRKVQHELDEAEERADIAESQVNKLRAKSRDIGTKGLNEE

| SMILES | Ventricular EC25 [1, 4] [µM] | Skeletal EC25 [3, 6] [µM] | Atrial EC25 [2, 7] [µM] | other results |
| --- | --- | --- | --- | --- |
| Cc1c([C@H](C)C(=O)N[C@@H](C)c2ccc(F)cc2F)c(=O)[nH]c2ccc(C(F)(F)F)nc12 (single isomer, unassigned) [compound 369] |  |  |  | Ventricular EC25 [1, 8]: 60.83 µM; Atrial EC25 [2, 9]: 0.29 µM; Skeletal EC25 [3, 10]: 15.36 µM |
| Cc1c(CC(=O)N[C@H](C)c2ccc(S(C)(=O)=O)cc2F)c(=O)[nH]c2ccnc(C#N)c12 (single isomer, unassigned) [compound 214] |  |  |  | Ventricular EC25 [1, 8]: 100.00 µM; Atrial EC25 [2, 9]: 100.00 µM; Skeletal EC25 [3, 10]: 23.30 µM |
| Cc1nc(C#N)ccc1[C@H](C)NC(=O)Cc1c(C)c2cc(F)ccc2[nH]c1=O [compound 1051] | 0.26 | 0.03 | 0.14 |  |
| C[C@H](NC(=O)Cc1cc2ccc(F)cc2[nH]c1=O)c1ncc(C#N)cn1 (single isomer, unassigned) [compound 2034] | 100.00 |  | 100.00 | Skeletal EC25 [3, 11]: 100.00‡ μM |
| Cc1c(CC(=O)N[C@H](C)c2ccc(C#N)cc2F)c(=O)[nH]c2ccc(F)c(C#N)c12 [compound 67] | 0.26 | 0.03 | 0.11 |  |
| Cc1c(CC(=O)N[C@H]2COc3cc(C#N)cnc32)c(=O)[nH]c2ccc(F)cc12 [compound 1063] | 0.76 | 0.22 | 0.16 |  |
| C[C@H](NC(=O)Cc1cc2c(F)c(F)ccc2[nH]c1=O)c1nc(C#N)cs1 (single isomer, unassigned) [compound 4008] |  |  |  | Ventricular EC25 ([1]; Y75 value: concentration required to reduce myosin ATP-ase activity by 25%, Porcine Ventricle Prep pCa 25 GEOM_MEAN): 2.08 µM; Atrial EC25 ([2]; Y75 value: concentration required to reduce myosin ATP-ase activity by 25%, Porcine Atria Prep pCa 25 GEOM_MEAN): 2.24 µM; Skeletal EC25 ([3]; Y75 value: concentration required to reduce myosin ATP-ase activity by 25%, Rabbit Psoas Prep pCa 25 GEOM_MEAN): 4.42 µM |
| C[C@@H](NC(=O)Cc1cc2c(F)c(F)ccc2[nH]c1=O)c1ncc(F)cc1F [compound 33] | 0.46 | 0.29 | 0.17 |  |
| Cc1c(CC(=O)N[C@H](CO)c2ncccc2F)c(=O)[nH]c2ccnc(C#N)c12 (single isomer, unassigned) [compound 235] |  |  |  | Ventricular EC25 [1, 8]: 100.00 µM; Atrial EC25 [2, 9]: 100.00 µM; Skeletal EC25 [3, 10]: 100.00 µM |
| COc1ccccc1[C@H](C)NC(=O)Cc1c(C)c2c(C)nccc2[nH]c1=O (single isomer, unassigned) [compound 319] |  |  |  | Ventricular EC25 [1, 8]: 100.00 µM; Atrial EC25 [2, 9]: 100.00 µM; Skeletal EC25 [3, 10]: 100.00 µM |
| CC(NC(=O)C1(c2cc3c(F)c(F)ccc3[nH]c2=O)CC1)c1cccc(C#N)n1 (single isomer, unassigned) [Compound 2569] | 100.00 | 100.00 | 4.84 |  |
| C[C@H](NC(=O)Cc1c(C2CC2)c2cc(C#N)ccc2[nH]c1=O)c1ncc(C#N)cc1F [compound 1152] | 7.78 | 3.82 | 59.91 |  |
| C[C@H](NC(=O)Cc1cc2c(C#N)c(F)ccc2[nH]c1=O)c1ncc(C#N)cn1 (single isomer, unassigned) [compound 2018] |  |  |  | Ventricular EC25 ([1]; ‡ Y125 value, not a Y75 value (125% activity relative to no compound), porcine ventricle myofibrils): 100.00‡ μM; Atrial EC25 [2, 5]: 100.00‡ μM; Skeletal EC25 [3, 11]: 100.00‡ μM |
| COc1nccc2[nH]c(=O)c(CC(=O)N[C@@H](C)c3ccc(F)cc3F)c(C)c12 [compound 385] |  |  |  | Ventricular EC25 [1, 8]: 0.33 µM; Atrial EC25 [2, 9]: 0.06 µM; Skeletal EC25 [3, 10]: 0.03 µM |
| COc1ccc([C@@H](C)NC(=O)Cc2c(C)c3c(C)nccc3[nH]c2=O)cn1 (single isomer, unassigned) [compound 290] |  |  |  | Ventricular EC25 [1, 8]: 100.00 µM; Atrial EC25 [2, 9]: 100.00 µM; Skeletal EC25 [3, 10]: 100.00 µM |
| Cc1c(Cl)ccc2[nH]c(=O)c(CC(=O)N[C@@H](C)c3ncc(C#N)cc3F)c(C)c12 (single isomer, unassigned) [compound 2046] | 0.10 |  | 0.05 |  |
| C[C@H](NC(=O)[C@H](C)c1cc2c(C3CC3)nccc2[nH]c1=O)c1ccc(F)cc1F (single isomer, unassigned) [compound 3506] |  |  |  | Ventricular EC25 [1, 8]: 100.00 µM; Skeletal EC25 (Y125 value, marked ‡) ([3]; rabbit psoas myofibrils, Y125 value, not a Y75 value): 108.50‡ μM |
| C[C@H](NC(=O)Cc1cc2c(O)nccc2[nH]c1=O)c1ccc(F)cc1F [compound 3013] |  |  |  | Ventricular EC25 [1, 8]: 100.00 µM; Skeletal EC25 [3, 10]: 100.00 µM |

Continued, in another order:

| Ventricular EC25 [1, 4] [µM] | Skeletal EC25 [3, 6] [µM] | Atrial EC25 [2, 7] [µM] | SMILES | other results |
| --- | --- | --- | --- | --- |
| 56.97 | 1.09 |  | Cc1c(CC(=O)N[C@H](C)c2ncc(C#N)cn2)c(=O)[nH]c2ccc(F)c(C3CC3)c12 (single isomer, unassigned) [compound 2059] | Atrial EC25 [2, 5]: 100.00‡ μM |
| 100.00 | 100.00 | 100.00 | C[C@H](NC(=O)C1(c2cc3c(F)c(F)ccc3[nH]c2=O)CC1)c1nccc(C#N)n1 (single isomer, unassigned) [compound 2506] |  |
| 0.54 | 0.12 | 0.15 | Cc1c(C(F)(F)C(=O)N[C@H](C)c2cnc(C#N)cn2)c(=O)[nH]c2ccc(F)cc12 (single isomer, unassigned) [compound 2563] |  |
| 100.00 | 1.34 | 0.46 | C[C@H](NC(=O)C1(c2cc3c(F)c(F)ccc3[nH]c2=O)CC1)c1cnc(C#N)cn1 (single isomer, unassigned) [compound 4830] |  |
| 100.00 | 7.56 | 0.97 | C[C@@H](NC(=O)C1(c2cc3c(F)c(F)ccc3[nH]c2=O)CC1)c1ncc(C#N)cn1 (single isomer, unassigned) [compound 2549] |  |
| 6.13 | 1.15 | 0.45 | C[C@@H](NC(=O)C1(c2cc3c(F)c(F)ccc3[nH]c2=O)CC1)c1cnc(C#N)cn1 (single isomer, unassigned) [compound 4829] |  |
| 10.09 | 1.00 | 0.67 | Cc1nc(C#N)cnc1[C@H](C)NC(=O)C1(c2cc3c(F)c(F)ccc3[nH]c2=O)CC1 (single isomer, unassigned) [compound 4826] |  |
| 100.00 | 100.00 |  | Cc1cc(F)cnc1[C@H](C)NC(=O)C(F)(F)c1c(C)c2cc(F)ccc2[nH]c1=O (single isomer, unassigned) [compound 4808] |  |
| 0.20 |  | 0.09 | Cc1c(C(F)(F)C(=O)N[C@H]2COc3cc(C#N)cc(F)c32)c(=O)[nH]c2ccc(F)cc12 (single isomer, unassigned) [compound 2554] |  |
| 1.39 | 0.82 |  | Cc1cc(F)cnc1[C@@H](C)NC(=O)C(F)(F)c1c(C)c2cc(F)ccc2[nH]c1=O (single isomer, unassigned) [compound 4807] |  |
